Source: patent publication US10370401B2, “Substituted nucleosides, nucleotides and analogs thereof” (Alios BioPharma, Inc., priority 2013, dated 2019)
Where two headings read alike, the source gives them in different places.

Tests used:
Type in all cases: cell-based
Human rhinovirus 1B = assay: Picornavirus assay (CPE, CellTiter-Glo, HeLa-OHIO cells); settings: Rhinovirus A, 96 h; Human rhinovirus 1B, HeLa-OHIO cells, 4 d at 33° C.; read-out: EC50
HRV-89 = assay: Human rhinovirus strain panel assay, HRV-89; settings: Rhinovirus A, HRV89; HRV-89; HeLa-OHIO cells; read-out: EC50
[1] = Cytotoxicity in HeLa OHIO host cell line; settings: human, HeLa-OHIO cells, n>5
[2] = system: human rhinovirus 16 (HRV-16), coxasackie B3 (CVB3), enterovirus-68 (EV-68) and enterovirus-71 (EV-71); assay: Enterovirus assay (four viruses, CellTiter Glo)
subgenomic HCV replicon = assay: HCV replicon assay (Huh-7, luciferase reporter); settings: Hepatitis C virus; Huh-7 HCV replicon cells, luciferase, 72 hours; read-out: EC50

Question: Which EC50 (Human rhinovirus 1B) does the source give for `CC(C)OC(=O)OCOP(=O)(OCOC(=O)OC(C)C)OC[C@@]1(CF)O[C@@H](n2ccc(=O)[nH]c2=O)[C@](C)(O)[C@@H]1O` [Compound 44] here?
Answer: The EC50 was under 1000 nM.

Question: What about the EC50 (HRV-89) of the same molecule?
Answer: The EC50 was 1000 to 2000 nM.

Question: What about the CC50 [1] of the same molecule?
Answer: Its CC50 is over 100000 nM.

Question: What about the EC50 ([2]; HRV-16, CVB3, EV-68 (HeLa-OHIO cells) and EV-71 (RD cells), read-out: EC50 ranging (across four viruses)) of the same molecule?
Answer: Its EC50 is 380 to 2520 nM.

Question: What about the EC50 ([2]; mean over HRV-16, CVB3, EV-68 and EV-71, read-out: EC50 mean (across four viruses)) of the same molecule?
Answer: The EC50 was 1390 ± 1140 nM.

Question: And the EC50 (subgenomic HCV replicon)?
Answer: The EC50 was under 1000 nM.
